What was measured:
trained panellists = test: Sensory evaluation of tablets by 11 trained panellists; assay type: in vivo; details: tablets 123.7 mg
Experimental: Bars coloured black denote a significant difference in a particular taste/sensory characteristic. Unshaded bars denote that there is no significant difference in the characteristic. A positive number represents an increased sensory response of the co-crystal compared to the physical mixture.
Tablets for sensory evaluation were prepared using a Romaco Kilian Styl'One single-stroke tablet press. […] The tablets were prepared with three compressions of 300 ms and an interval of 200 ms.
Each of the panellists received a tray with two tablets presented on plastic plates coded with random 3-digit numbers. The tablets had to be crunched with the front teeth and kept in mouth to dissolve slowly (method 1). Alternatively, tablets could be crunched with the front teeth and chewed constantly in the mouth until complete dissolution occurred (method 2).
Afterwards the panellists were asked to rate the taste of the tablets in respect of the following 12 categories: upfront saltiness (1), overall saltiness (2), sweetness (3), sourness (4), umami (5), friable (6), melting (7), overall persistence (8), saltiness persistence (9), sweetness persistence (10), sourness persistence (11), and tingling (12).

[1] = Dissolution kinetics in water by online refractometry; assay type: physicochemical; details: 60 mL water, stirred 500 rpm, room temperature, particle size 100-200 μm, refractive index
Experimental: FIG. 1 Dissolution kinetics. The change in refractive index (n) was measured by online-refractometry in water over the time period 0 to 50 seconds. 0.56 g of pure NaCl (triangle); 2.58 g of (L-serine)2.sodium chloride co-crystals (diamond); a physical mixture of 2.02 g L-serine and 0.56 g NaCl (cross); and a 2.02 g of pure L-serine (star) were each added to 60 mL of water stirred (500 rpm) at room temperature. The particle size of the respective solids was standardized in the range 100-200 μm.
The rate of dissolution of a solid in a liquid may be measured by refractometry. A refractometer measures the extent to which light is refracted when it moves from air into a sample, thereby allowing the refractive index (n) of the sample to be measured. […] Accordingly, by monitoring the change in refractive index over time, the kinetic rate of dissolution of a solid can be determined. So that independent measurements of dissolution rate can be compared, the refractive index values may be normalised by expression as a percentage of the maximal value recorded in a particular experiment.
The dissolution behaviour of (L-serine)2.sodium co-crystals obtained by direct crystallisation from a saturated solution (Example 2) were tested by refractometry. In this experiment, test samples were added to 60 mL of water, and the extent of dissolution was measured while stirring at 500 rpm. […]

| Structure (SMILES) | salty taste perceived, co-crystal tablets vs L-serine/NaCl physical mix tablets (trained panellists; during and after consumption) | overall saltiness vs physical mix (trained panellists; FIG. 2) | saltiness persistence vs physical mix (trained panellists; FIG. 2) | upfront saltiness vs physical mix (trained panellists; FIG. 2) | time to reach 90% dissolution [1] |
| --- | --- | --- | --- | --- | --- |
| N[C@@H](CO)C(=O)O.N[C@@H](CO)C(=O)O.[Cl-].[Na+] [(L-serine)2.sodium chloride co-crystals, (L-serine)2.sodium chloride] | significantly more salty | superior | superior | superior | around 25 seconds |
| [Cl-].[Na+] [NaCl, Sodium chloride, reference compound] |  |  |  |  | around 25 seconds |

From patent US20190059429A1, “SALT COMPOSITION INCLUDING SERINE” (NESTEC S.A., priority 2016, published 2019)
